Laboratory results published in US20240199608A1 (Eli Lilly and Company, priority 2022, published 2024).

Molecular target: T1, Human AhR (Homo sapiens, UniProt P35869)
T1 construct: expressed in transfected cells
T1 sequence (P35869 11-848): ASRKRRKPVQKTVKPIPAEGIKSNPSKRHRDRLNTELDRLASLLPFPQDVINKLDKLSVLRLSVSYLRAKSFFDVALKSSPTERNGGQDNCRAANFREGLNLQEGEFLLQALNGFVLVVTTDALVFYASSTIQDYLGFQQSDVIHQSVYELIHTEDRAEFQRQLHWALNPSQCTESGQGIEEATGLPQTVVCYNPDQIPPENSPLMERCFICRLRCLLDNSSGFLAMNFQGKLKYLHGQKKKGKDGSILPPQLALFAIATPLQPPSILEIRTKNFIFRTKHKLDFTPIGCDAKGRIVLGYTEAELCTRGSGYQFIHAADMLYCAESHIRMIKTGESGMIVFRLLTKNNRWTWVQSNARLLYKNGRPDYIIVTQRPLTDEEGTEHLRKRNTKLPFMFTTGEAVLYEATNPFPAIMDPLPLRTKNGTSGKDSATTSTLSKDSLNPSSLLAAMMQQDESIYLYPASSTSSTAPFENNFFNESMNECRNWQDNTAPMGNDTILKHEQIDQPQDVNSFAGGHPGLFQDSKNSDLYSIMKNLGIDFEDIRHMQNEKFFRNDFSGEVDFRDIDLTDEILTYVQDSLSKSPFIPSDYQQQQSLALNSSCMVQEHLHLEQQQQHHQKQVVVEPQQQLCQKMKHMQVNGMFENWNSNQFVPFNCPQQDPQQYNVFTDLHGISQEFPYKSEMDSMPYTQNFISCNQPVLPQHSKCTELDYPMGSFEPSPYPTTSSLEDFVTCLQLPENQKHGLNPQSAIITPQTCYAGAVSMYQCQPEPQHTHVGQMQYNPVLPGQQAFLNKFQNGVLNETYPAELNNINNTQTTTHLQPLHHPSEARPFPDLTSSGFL
Test: hAHR Nuclear Translocation Assay
Assay type: cell-based
Conditions: AhR-EGFP nuclear translocation in Jump-In T-REx HEK293 cells, 45 minutes incubation; class symbols; read-out: Rel EC50
Source text: The purpose of this assay is to measure the ability of compounds to bind to, activate, and induce the translocation of AhR into the nucleus of a cell for transcription. Stable cell lines were established using Jump-InTM T-RExTM HEK293 Retargeting Kit (Life Technologies). Human AhR cDNA was cloned into the pJTI R4 CMV-TO EGFP vector. The EGFP was cloned to the C-terminal of AHR to form AhR-EGFP chimera. The pJTI R4 CMV-TO AhR-EGFP vector was transfected using FuGENE® HD into Jump-InTM T-RExTM HEK293 cells. Transfected cells were selected using 2.5 mg/ml G418 for 10 to 14 days, then expanded, harvested, and suspended in freeze media (FBS with 8% DMSO) at 2×10^7 cells/ml, and aliquots were stored in liquid nitrogen. One day before the assay date, cells were thawed and resuspended in DMEM with 5% FBS in the presence of 1 μg/ml Doxycycline and plated into ploy-L-Lysine coated […]-384 ULTRA Microplates (Perkin Elmer) at 12,000 to 15,000 cells per well and incubated at 37° C. and 5% CO2 overnight. On the assay date, compound was serially diluted (1:2) into 384-well nunc plates with DMSO using acoustic dispensing (ECHO®). The dose response was a 20-point curve. […] The culture media was damped and 25 μl of DMEM plus 0.1% BSA was added, then 25 μL of compound in DMEM plus 0.1% BSA was added into cell plates. Cells were incubated compounds at 37° C. and 5% CO2 for 45 minutes. The final DMSO concentration was 0.2%. The media was damped after 45 minutes incubation. The cells were fixed with 40 μl of cold MeOH (-20° C.) for 20 minutes. The MeOH was damped and 50 μL of DPBS containing 1 μg/mL Hochst was added into the cell plates. The intensity of EGFP was quantitated by using Opera PHENIX® or OPERETTA® high content image system (Perkin Elmer) with 20× Water Objective and five field per well. The ratio of EGFP fluorescent intensity in nuclear over cytosol was analyzed using a 4-parameter nonlinear logistic equation to determine the potency of AhR agonists.

Compound | EC50
CC1CCc2c1cc(C(=O)Nc1ccns1)c1nncn21 (single isomer, unassigned) [Example 38, N-(Isothiazol-5-yl)-6-methyl-7,8-dihydro-6H-cyclopenta[e][1,2,4] triazolo[4,3-a]pyridine-4-carboxamide] | 1 to 10 nM
CC1CCc2c1cc(C(=O)Nc1ccns1)c1nncn21 (single isomer, unassigned) [Example 39, N-(Isothiazol-5-yl)-6-methyl-7,8-dihydro-6H-cyclopenta[e][1,2,4] triazolo[4,3-a]pyridine-4-carboxamide] | 1 to 10 nM
CC1CCc2c1cc(C(=O)Nc1ccc(F)cn1)c1nncn21 (single isomer, unassigned) [Example 42, N-(5-Fluoropyridin-2-yl)-6-methyl-7,8-dihydro-6H-cyclopenta[e][1,2,4] triazolo[4,3-a]pyridine-4-carboxamide] | 1 to 10 nM
CC1CCc2c1cc(C(=O)Nc1ccc(F)cn1)c1nncn21 (single isomer, unassigned) [Example 43, N-(5-Fluoropyridin-2-yl)-6-methyl-7,8-dihydro-6H-cyclopenta[e][1,2,4]triazolo[4,3-a]pyridine-4-carboxamide] | 1 to 10 nM
CC1CCc2c1cc(C(=O)Nc1ccno1)c1nncn21 (single isomer, unassigned) [Example 44, N-(Isoxazol-5-yl)-6-methyl-7,8-dihydro-6H-cyclopenta[e][1,2,4] triazolo[4,3-a]pyridine-4-carboxamide] | > 50 nM
CC1CCc2c1cc(C(=O)Nc1ccno1)c1nncn21 (single isomer, unassigned) [Example 45, N-(Isoxazol-5-yl)-6-methyl-7,8-dihydro-6H-cyclopenta[e][1,2,4] triazolo[4,3-a]pyridine-4-carboxamide] | 10 to 50 nM
CC1CCc2c1cc(C(=O)Nc1ncc(Cl)cn1)c1nncn21 (single isomer, unassigned) [Example 46, N-(5-Chloropyrimidin-2-yl)-6-methyl-7,8-dihydro-6H-cyclopenta[e][1,2,4] triazolo[4,3-a]pyridine-4-carboxamide] | 1 to 10 nM
CC1CCc2c1cc(C(=O)Nc1ncc(Cl)cn1)c1nncn21 (single isomer, unassigned) [Example 47, N-(5-Chloropyrimidin-2-yl)-6-methyl-7,8-dihydro-6H-cyclopenta[e][1,2,4] triazolo[4,3-a]pyridine-4-carboxamide] | 1 to 10 nM
COc1cnc(NC(=O)c2cc3c(n4cnnc24)CCC3C)nc1 (single isomer, unassigned) [Example 48, N-(5-Methoxypyrimidin-2-yl)-6-methyl-7,8-dihydro-6H-cyclopenta[e][1,2,4] triazolo[4,3-a]pyridine-4-carboxamide] | 10 to 50 nM
COc1cnc(NC(=O)c2cc3c(n4cnnc24)CCC3C)nc1 (single isomer, unassigned) [Example 49, N-(5-Methoxypyrimidin-2-yl)-6-methyl-7,8-dihydro-6H-cyclopenta[e][1,2,4] triazolo[4,3-a]pyridine-4-carboxamide] | 10 to 50 nM
CC(C)OC1CCc2c1cc(C(=O)Nc1ncc(F)cn1)c1nncn21 (single isomer, unassigned) [Example 50, N-(5-Fluoropyrimidin-2-yl)-6-isopropoxy-7,8-dihydro-6H-cyclopenta[e][1,2,4] triazolo[4,3-a]pyridine-4-carboxamide] | > 50 nM
CC(C)OC1CCc2c1cc(C(=O)Nc1ncc(F)cn1)c1nncn21 (single isomer, unassigned) [Example 51, N-(5-Fluoropyrimidin-2-yl)-6-isopropoxy-7,8-dihydro-6H-cyclopenta[e][1,2,4] triazolo[4,3-a]pyridine-4-carboxamide] | > 50 nM
Cc1nnc2c(C(=O)Nc3ncc(F)cn3)cc3c(n12)CCC3C (single isomer, unassigned) [Example 52, N-(5-Fluoropyrimidin-2-yl)-1,6-dimethyl-7,8-dihydro-6H-cyclopenta[e][1,2,4] triazolo[4,3-a]pyridine-4-carboxamide] | > 50 nM
